Measurements from US20250144067A1, “PERSONALIZED STARVATION THERAPY FOR CANCER” (Faeth Therapeutics, Inc., priority 2021, published 2025).
Where a name gives a salt, the structure may show the parent alone.

Tests used:
[1] = tested on: NCI-H292 lung cancer cells; assay: FDA drug screening, complete media vs cholesterol-free media without statin (TABLE 1); assay type: cell-based, human
[2] = tested on: NCI-H292 lung cancer cells; assay: FDA drug screening, complete media vs cholesterol-free media with simvastatin (TABLE 2); assay type: cell-based, human; settings: for Cholesterol-free media + simvastatin (0.04 μM) / Complete Media: NCI-H292 cells
[3] = Complete minus Cholesterol-free, greater than 0 enhanced anti-cancer activity, about 0 neutral, below 0 antagonist
[4] = NCI-H292 cells, FDA drug library screen, cholesterol-free media without statin
[5] = NCI-H292 cells, FDA drug library screen, complete media
[6] = cholesterol-free media with simvastatin 0.04 μM, cell growth value in FDA drug screen
[7] = complete media, cell growth value in FDA drug screen
[8] = complete media minus cholesterol-free media + simvastatin, >0 enhanced anti-cancer activity, about 0 neutral, <0 antagonist
[9] = drug in cholesterol-free media with simvastatin 0.04 μM
[10] = complete media vs cholesterol-free media + simvastatin (0.04 μM), >0 enhanced anti-cancer activity, about 0 neutral, <0 antagonist
[11] = FDA library drug in cholesterol-free media with simvastatin 0.04 μM
[12] = FDA library drug in complete media
[13] = NCI-H292 cells, cholesterol-free media without statin, FDA drug library screen
[14] = NCI-H292 cells, complete media, FDA drug library screen
[15] = FDA drug library screen, cholesterol-free media with simvastatin 0.04 μM
[16] = FDA drug library screen, complete media
[17] = Complete minus Cholesterol-free, […]
[18] = NCI-H292 cells, cholesterol-free media without statin
[19] = NCI-H292 cells in cholesterol-free media without statin
[20] = NCI-H292 cells in complete media
[21] = Complete minus Cholesterol-free, greater than 0 enhanced anti-cancer activity, about 0 neutral, below 0 antagonists
[22] = Complete minus Cholesterol-free, >0 enhanced anti-cancer activity, about 0 neutral, <0 antagonist

Row | Compound | Difference [1, 3] | Cholesterol-free [1, 4] | Complete [1, 5] | Difference [2, 8] | Difference [2, 10] | Cholesterol-free media + simvastatin (0.04 μM) [2, 15] | Complete Media [2, 16] | Cholesterol-free [1, 19] | Complete [1, 20] | other results
1 | CC(C(=O)O)c1ccc2c(c1)[nH]c1ccc(Cl)cc12 (stereo not drawn) [Carprofen] | −0.18 | 1.071 | 0.886 | 0.12 | – | – | – | – | – | Cholesterol-free media + simvastatin (0.04 μM) [2, 6]: 0.8634; Complete Media [2, 7]: 0.98
2 | CC(C)(C)NCC(O)COc1cccc2c1CCC(=O)N2 (stereo not drawn) [Carteolol hydrochloride] | −0.19 | 1.114 | 0.9284 | – | −0.24 | – | – | – | – | Cholesterol-free media + simvastatin (0.04 μM) [2, 9]: 1.125; Complete Media ([2]; drug in complete media): 0.8865
3 | COc1ccccc1OCCNCC(O)COc1cccc2[nH]c3ccccc3c12 (stereo not drawn) [Carvedilol] | −0.18 | 1.133 | 0.9579 | – | −0.48 | – | – | – | – | Cholesterol-free media + simvastatin (0.04 μM) [2, 11]: 1.448; Complete Media [2, 12]: 0.9665
4 | N[C@@H](C(=O)N[C@@H]1C(=O)N2C(C(=O)O)=C(Cl)CS[C@H]12)c1ccccc1 [Cefaclor] | −0.11 | 1.02 | 0.9111 | 0.10 | – | – | – | – | – | Cholesterol-free media + simvastatin (0.04 μM) [2, 6]: 1.593; Complete Media [2, 7]: 1.696
5 | CC1=C(C(=O)O)N2C(=O)[C@@H](NC(=O)[C@H](N)c3ccc(O)cc3)[C@H]2SC1 [Cefadroxil] | – | – | – | 0.55 | – | 1.041 | 1.588 | – | – | Cholesterol-free [1, 13]: 1.424; Complete [1, 14]: 1.685; Difference ([1]; complete vs cholesterol-free media, >0 enhanced anti-cancer activity, about 0 neutral, <0 antagonist): 0.26
6 | Cn1nnnc1SCC1=C(C(=O)[O-])N2C(=O)[C@@H](NC(=O)[C@H](O)c3ccccc3)[C@H]2SC1.[Na+] [Cefamandole (sodium)] | −0.12 | 1.243 | 1.12 | – | −0.74 | – | – | – | – | Cholesterol-free media + simvastatin (0.04 μM) [2, 11]: 2.169; Complete Media [2, 12]: 1.429
7 | CC(=O)OCC1=C(C(=O)O)N2C(=O)[C@@H](NC(=O)CSC(=NC(C)C)NC(C)C)[C@H]2SC1 [Cefathiamidine] | – | – | – | – | – | 0.9136 | 0.833 | – | – | Difference [1, 17]: −0.30; Cholesterol-free [1, 18]: 1.276; Complete ([1]; NCI-H292 cells, complete media): 0.9789; Difference ([2]; complete media vs cholesterol-free media + simvastatin (0.04 μM), […]): −0.08
8 | Cc1nnc(SCC2=C(C(=O)O)N3C(=O)[C@@H](NC(=O)Cn4cc(Cl)c(=O)c(Cl)c4)[C@H]3SC2)s1 [Cefazedone] | – | – | – | – | – | 1.153 | 1.591 | 1.61 | 0.9409 | Difference [1, 17]: −0.67; Difference ([2]; complete media minus cholesterol-free media + simvastatin, […]): 0.44
9 | Cc1nnc(SCC2=C(C(=O)[O-])N3C(=O)[C@@H](NC(=O)Cn4cnnn4)[C@H]3SC2)s1.[Na+] [Cefazolin (sodium)] | – | – | – | – | −0.30 | – | – | 1.776 | 0.9866 | Difference [1, 21]: −0.79; Cholesterol-free media + simvastatin (0.04 μM) [2, 11]: 1.378; Complete Media [2, 12]: 1.076
10 | Cc1nnc(SCC2=C(C(=O)O)N3C(=O)[C@@H](NC(=O)Cn4cnnn4)[C@H]3SC2)s1 [Cefazolin] | – | – | – | – | −0.13 | 1.197 | 1.069 | 1.603 | 1.065 | Difference [1, 21]: −0.54
11 | C=CC1=C(C(=O)O)N2C(=O)[C@@H](NC(=O)/C(=N\O)c3csc(N)n3)[C@H]2SC1 [Cefdinir] | – | – | – | – | −0.22 | – | – | – | – | Difference [1, 22]: −0.24; Cholesterol-free [1, 18]: 1.244; Complete ([1]; NCI-H292 cells, complete media): 0.9998; Cholesterol-free media + simvastatin (0.04 μM) [2, 9]: 1.206; Complete Media ([2]; drug in complete media): 0.987
12 | CO/N=C(\C(=O)N[C@@H]1C(=O)N2C(C(=O)OCOC(=O)C(C)(C)C)=C(/C=C\c3scnc3C)CS[C@H]12)c1csc(N)n1 [Cefditoren (Pivoxil)] | – | – | – | 0.05 | – | – | – | – | – | Difference [1, 22]: −0.05; Cholesterol-free [1, 13]: 1.012; Complete [1, 14]: 0.9665; Cholesterol-free media + simvastatin (0.04 μM) [2, 6]: 0.7736; Complete Media [2, 7]: 0.8262
13 | CO/N=C(\C(=O)N[C@@H]1C(=O)N2C(C(=O)[O-])=C(C[N+]3(C)CCCC3)CS[C@H]12)c1csc(N)n1 [Cefepime (Dihydrochloride Monohydrate)] | – | – | – | 0.39 | – | 1.15 | 1.537 | 1.209 | 0.6874 | Difference [1, 21]: −0.52
